The assay relates to MEDP cells as a pulp-derived cell line. The assay can be described thus: Dspp expression by PCR in cultured MEDP pulp-derived cells (induction of differentiation into odontoblasts). It counts as cell-based. Conditions: for expression of Dspp (relative ratio of DSPP to GADPH amplification product): fibronectin-coated vessel; for expression of Dspp in a pulp-derived cell line: same technique as Example 1, addition concentration to be considered. Here is the method:
In this example, MEDP cells as a pulp-derived cell line were cultured in a system including NaClO3, and the expression of Dspp in the cultured cells was confirmed. The expression of Dspp was confirmed by PCR.
The MEDP cells were cultured using a DMEM medium containing 10% v/v fetal bovine serum (FBS). The cells were suspended in the medium so that the number of the cells was 3.7×10^5 cells/ml, and 5 ml of the cell suspension were added to a culture vessel having a diameter of 6 cm and cultured. The culture was carried out using a culture vessel coated with fibronectin (FN) at 37±0.5° C. On day 1 of the culture, […] was added so that the final concentration was 50 mM or 100 mM, and the cells were cultured for an additional 7 days.
After mRNA had been extracted from the cultured cells using an RNeasy Mini Kit™ (manufactured by QIAGEN), reverse transcription was carried out using a PrimeScript™ Reverse Transcriptase (manufactured by TAKARA) to prepare cDNA, which was used as a sample for PCR. The extraction of mRNA and the preparation of cDNA were carried out in accordance with the manufacturer's instructions. Primers formed of base sequences set forth in SEQ ID NOS: 1 and 2 of the sequence listing were used as primers for amplification of DSPP, and primers formed of base sequences set forth in SEQ ID NOS: 3 and 4 of the sequence listing were used as primers for amplification of GADPH as a control gene. The PCR was carried out using a LightCycler™ (manufactured by Roche). The expression amount of DSPP was confirmed with a relative ratio between an amplification product of DSPP and an amplification product of GADPH.
A treatment for inducing differentiation was carried out by the same technique as that of Example 1 except that LiCl was used in place of NaClO3 and LiCl was added so that the final concentration was 5 mM or 50 mM on day 1 of the culture. Then, the expression of Dspp was confirmed.
A treatment for inducing differentiation was carried out by the same technique as that of Example 1 except that NaClO4 was used in place of NaClO3. Then, the expression of Dspp was confirmed.
A treatment for inducing differentiation is carried out by the same technique as that of Example 1 except that Norrin (R&D Systems, Inc.: catalog No.: 3014-NR) is used in place of NaClO3. Then, the expression of Dspp is confirmed. The addition concentration of Norrin is to be considered.
A treatment for inducing differentiation is carried out by the same technique as that of Example 1 except that R-Spondin2 (R&D Systems, Inc.: catalog No.: 3266-RS/CF) is used in place of NaClO3. Then, the expression of Dspp is confirmed. The addition concentration of R-Spondin2 is to be considered.

The mark [1] stands for this setting: 50 mM or 100 mM added on day 1, cultured additional 7 days.

Data on five molecules can be found in patent US8993000B2, “Method for inducing differentiation of dental pulp cells into odontoblasts” (National University Corporation Okayama University, priority 2009, dated 2015).

In the case of `[Cl-].[Li+]` [LiCl, lithium chloride], where the note is “5 mM or 50 mM added on day 1, cultured additional 7 days”, the “expression of Dspp (relative ratio of DSPP to GADPH amplification product)” value is recorded as “significantly enhanced”.

As to `[Na+].[O-][Cl+2]([O-])[O-]` [NaClO3, sodium chlorate], the “expression of Dspp (relative ratio of DSPP to GADPH amplification product)” value under setting [1] is “significantly enhanced”.

For `[O-][Cl+3]([O-])([O-])O` [sodium perchlorate], under setting [1], the “expression of Dspp (relative ratio of DSPP to GADPH amplification product)” value is reported as “significantly enhanced”.

B1: Norrin: protein capable of directly activating a Wnt signaling pathway (R&D Systems, catalog No. 3014-NR) (protein, UniProt Q00604 25-133, looked up)
Norrin: KTDSSFIMDSDPRRCMRHHYVDSISHPLYKCSSKMVLLARCEGHCSQASRSEPLVSFSTVLKQPFRSSCHCCRPQTSKLKALRLRCSGGMRLTATYRYILSCHCEECNS
As for B1, the “expression of Dspp in a pulp-derived cell line” value was “significantly enhances”.

B2: R-Spondin2: protein capable of directly activating a Wnt signaling pathway (R&D Systems, catalog No. 3266-RS/CF) (protein, UniProt Q6UXX9 22-243, looked up)
R-spondin-2: QGNRWRRSKRASYVSNPICKGCLSCSKDNGCSRCQQKLFFFLRREGMRQYGECLHSCPSGYYGHRAPDMNRCARCRIENCDSCFSKDFCTKCKVGFYLHRGRCFDECPDGFAPLEETMECVEGCEVGHWSEWGTCSRNNRTCGFKWGLETRTRQIVKKPVKDTILCPTIAESRRCKMTMRHCPGGKRTPKAKEKRNKKKKRKLIERAQEQHSVFLATDRANQ
Turning to B2, the “expression of Dspp in a pulp-derived cell line” value is “significantly enhances”.
